Measurements published in patent US12564583B2, “Small molecules against cereblon to enhance effector T cell function” (H. LEE MOFFITT CANCER CENTER AND RESEARCH INSTITUTE, INC., priority 2016, dated 2026).
Non-standard residues stand in square brackets, D forms with d. Residues, ends and D or L forms follow the SMILES beside them. pGlu = O=C1CC[C@@H](C(=O)O)N1

Key:
IL-2 = IL-2 relative to DMSO; type: cell-based
[1] = Viability relative to DMSO; type: cell-based; set-up: concentration or dose not given beside the values
[2] = biological target: thalidomide binding domain (TBD) of cereblon (Homo sapiens, UniProt Q96SW2); test: Cereblon binding (DSF, FP/FI); settings: for inhibition at 200 µM: read-out: Cereblon Binding (≥50% inhibition at 200 μM)
Sequence of thalidomide binding domain (TBD) of cereblon (Q96SW2 318-426 limits assumed): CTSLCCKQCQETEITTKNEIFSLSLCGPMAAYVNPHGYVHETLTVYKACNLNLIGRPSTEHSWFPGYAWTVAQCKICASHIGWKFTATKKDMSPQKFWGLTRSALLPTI
Protocol: Several libraries are available for screening inhibitors. Virtual analysis was formulated and then theoretical design of chemical test kit and virtual screen of test kit were carried out. Physical binding studies were also completed for the initial compounds using DSF and FP assays after they are fully tested. TEST KITs that represent the compounds identified from each of the available chemical libraries based on virtual chemical structures were also made.

MM1.S = test: Viability of sensitive cell line relative to DMSO; type: cell-based, human
Protocol: (§1) For proliferation studies, 1-2×10^4 cells per well were seeded in a 96-well plate and were treated with using cell-counting-8 kit (CCK8) (Dojindo, Rockville, MD) according to manufacturer's protocol.

U266 = test: Viability of sensitive cell line relative to DMSO; type: cell-based, human
Protocol: as §1

THP-1 = test: Viability of sensitive cell line relative to DMSO; type: cell-based
U-937 = test: Viability of sensitive cell line relative to DMSO; type: cell-based
K562 = test: Viability of sensitive cell line relative to DMSO; type: cell-based
HL-60 = test: Viability of sensitive cell line relative to DMSO; type: cell-based
[3] = Viability of sensitive cell line relative to DMSO; type: cell-based; set-up: concentration or dose not given beside the values; settings: human, lymphocytes
human TBD wild type = biological target: T1, human TBD wild type (Homo sapiens, UniProt Q96SW2); test: Intrinsic tryptophan fluorescence assay (IF); type: binding
T1 construct: The gene coding for the human TBD (aa 317-425) was synthesized; GST (PreScission site, pGEX-6P-1) (N, cleaved yes); made in house; host or cells: E. coli Rosetta 2(DE3)pLysS
T1 sequence (Q96SW2 317-425): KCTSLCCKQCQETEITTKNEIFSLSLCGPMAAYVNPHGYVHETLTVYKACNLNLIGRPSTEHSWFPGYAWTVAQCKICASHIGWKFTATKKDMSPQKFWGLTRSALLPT
Source text: Intrinsic tryptophan fluorescence assay: Binding of compounds to wild-type and mutant TBD was monitored by fluorescence spectroscopy, using an adapted previously published method (14). All chemicals used in this assay were purchased from Sigma-Aldrich unless otherwise stated. In this assay, changes in emission spectra are induced by interactions of these compounds with the three Trp residues (Trp380, Trp386 and Trp400) in the binding site (15, 16). […] A 0.5% final DMSO concentration was used in each well. […] All measurements were done in triplicate and corrected for inner filter effect to subtract for ligand-associated fluorescence, as described (17). […] Graph plotting and curve fitting to obtain apparent dissociation constant (KD) values were calculated by fitting the relative change in intrinsic fluorescence at 340 nm (1-F/F0) versus ligand concentration to a nonlinear regression with one-site binding hyperbola with GraphPad Prism Sofware (GraphPad Software, La Jolla, CA).

c-Myc mRNA = test: qRT-PCR of c-Myc in T cells; type: cell-based; settings: primary mouse T cells, 72 h
Protocol: qRT-PCR: Isolated T cells from Crbn^+/+ and Crbn^−/− mice were lysed, homogenized (Qiashredder, Qiagen), and total RNA extracted (RNeasy, Qiagen) according to manufacturer protocol. Complementary DNA was generated from isolated RNA (iScript cDNA synthesis Kit, Bio-Rad). RNA expression was analyzed by quantitative real time-polymerase chain reaction (qRT-PCR) using Taqman Universal PCR Master Mix for Taqman probes (Thermo Fischer Scientific) against (cDNA) c-Myc (Mm00487804_m1) and (cDNA) β2M (Mm00437762_m1). Samples were run on an Applied Biosystems 7900 HT and Sequence Detection Systems software.

mouse T cells [4] = test: Flow cytometry of activated T cells (CD98, viability, division); type: cell-based
[5] = test system: BRD4 protein and c-Myc expression; test: Western blot of BRD4 and c-Myc; type: cell-based, human and mouse
[6] = test system: Human multiple myeloma cell lines U266, H929, MM1.S, and OPM2; test: Growth suppression of multiple myeloma cells; type: cell-based; settings: for IC50: Homo sapiens, Multiple myeloma cell, read-out: IC50 doses
Protocol: as §1

human T cells [7] = test: IL-2 production by stimulated T cells; type: cell-based; settings: anti-CD3 stimulated, relative to DMSO
mouse T cells [8] = test: IL-2 production by stimulated T cells; type: cell-based; settings: 10 μM, ± anti-CD28
human T cells [9] = test: Viability and proliferation of activated T cells; type: cell-based

## O=C1CC(N2C(=O)c3ccccc3C2=O)C(=O)N1 (stereo not shown)
IL-2
  IL-2 (%) (Relative to DMSO): 10.9%
[1]
  viability: 75.3%
[2]
  Cereblon Binding (≥50% inhibition at 200 μM): No

## O=C1C[C@H](N2C(=O)c3ccccc3C2=O)C(=O)N1
IL-2
  IL-2 (%) (Relative to DMSO): 44.4%
[1]
  viability: 85.6%
[2]
  Cereblon Binding (≥50% inhibition at 200 μM): No

## Nc1ccccc1S(=O)(=O)NCCn1ccc(=O)[nH]c1=O
IL-2
  IL-2 (%) (Relative to DMSO): 31.8%
[1]
  viability: 74.6%
[2]
  Cereblon Binding (≥50% inhibition at 200 μM): No

## O=C1CCC(NCCc2ccccn2)C(=O)N1 (stereo not shown)
[2]
  inhibition at 200 µM: > 50%
MM1.S
  Viability (%) (Relative to DMSO): 29.9%
U266
  Viability (%) (Relative to DMSO): 27.0%
THP-1
  Viability (%) (Relative to DMSO): 98.8%
U-937
  Viability (%) (Relative to DMSO): 58.4%
K562
  Viability (%) (Relative to DMSO): 80.0%
HL-60
  Viability (%) (Relative to DMSO): 81.8%
[3]
  viability: 91.1%

## CN(Cc1ccccc1)C1CC(=O)NC1=O (stereo not shown)
[2]
  Cereblon Binding (≥50% inhibition at 200 μM): No
MM1.S
  Viability (%) (Relative to DMSO): 1.1%
U266
  Viability (%) (Relative to DMSO): 0%
THP-1
  Viability (%) (Relative to DMSO): 32.6%
U-937
  Viability (%) (Relative to DMSO): 98.5%
K562
  Viability (%) (Relative to DMSO): 116.7%
HL-60
  Viability (%) (Relative to DMSO): 10.15%
[3]
  viability: 96.8%

## Cn1c(=O)ccn(CCCCc2ccccc2)c1=O
[2]
  Cereblon Binding (≥50% inhibition at 200 μM): No
MM1.S
  Viability (%) (Relative to DMSO): 43.0%
U266
  Viability (%) (Relative to DMSO): 32.7%
THP-1
  Viability (%) (Relative to DMSO): 32.8%
U-937
  Viability (%) (Relative to DMSO): 50.5%
K562
  Viability (%) (Relative to DMSO): 17.7%
HL-60
  Viability (%) (Relative to DMSO): 39.3%
[3]
  viability: 94.2%

## CNc1ccccc1C(=O)NCCNC1CC(=O)NC1=O (stereo not shown)
[2]
  Cereblon Binding (≥50% inhibition at 200 μM): No
MM1.S
  Viability (%) (Relative to DMSO): 53.6%
U266
  Viability (%) (Relative to DMSO): 0.1%
THP-1
  Viability (%) (Relative to DMSO): 41.1%
U-937
  Viability (%) (Relative to DMSO): 6.3%
K562
  Viability (%) (Relative to DMSO): 21.1%
HL-60
  Viability (%) (Relative to DMSO): 12.0%
[3]
  viability: 92.6%

## COC(=O)[C@H](C)NC(=O)[C@@H]1CCC(=O)N1 ([pGlu]-Ala-OMe)
IL-2
  IL-2 (%) (Relative to DMSO): 11.7%
[1]
  viability: 101%
[2]
  Cereblon Binding (≥50% inhibition at 200 μM): No

## CC(C)C[C@H](NC(=O)[C@@H]1CCC(=O)N1)C(N)=O ([pGlu]-Leu-NH2)
IL-2
  IL-2 (%) (Relative to DMSO): 24.6%
[1]
  viability: 110%
[2]
  Cereblon Binding (≥50% inhibition at 200 μM): No

## Cc1sc2c(c1C)C(c1ccc(Cl)cc1)=N[C@@H](CC(=O)OC(C)(C)C)c1nnc(C)n1-2 [JQ1]
Human TBD wild type
  binding affinity for CRBN-TBD: does not bind
c-Myc mRNA
  c-Myc mRNA: Suppression
Mouse T cells [4]
  proliferation: compromised
  surface expression of CD98: reduction
  viability: compromised
[5]; activated mouse T cells, not dependent on CRBN
  BRD4 protein level: slight reduction in protein expression

## Nc1cccc2c1CN(C1CCC(=O)NC1=O)C2=O (stereo not shown) [Lenalidomide, lenalidomide]
[6]
  IC50: 7 to 16 µM
Human T cells [7]
  levels of IL2 mRNA and protein: significantly increased
Mouse T cells [8]
  lenalidomide-induced increase in IL-2: only human T cells displayed the expected lenalidomide-induced increase in IL-2

## Nc1cccc2c1C(=O)N(C1CCC(=O)NC1=O)C2=O (stereo not shown) [Pomalidomide, pomalidomide]
[6]
  IC50: 0.05 to 0.61 µM
Human T cells [9]
  proliferation: increase proliferation
Human T cells [9]; 72 h
  relative viability: no effect on viability

## O=C1CCC(N2C(=O)c3ccccc3C2=O)C(=O)N1 (stereo not shown) [Thalidomide, thalidomide]
[6]; doses up to 200 μM
  growth suppression: no suppressive function

## Cc1sc2c(c1C)C(c1ccc(Cl)cc1)=N[C@@H](CC(=O)NCCCCNC(=O)COc1cccc3c1C(=O)N(C1CCC(=O)NC1=O)C3=O)c1nnc(C)n1-2 (stereo partly shown) [dBET1]
Mouse T cells [4]
  surface expression of CD98: reduces the percentage of cells expressing the c-Myc target CD98
  viability: suppresses viability
[5]; human T cells, mouse T cells, MM1.S, 5TGM1
  BRD4 protein and c-Myc expression: dramatically suppressed

## Nc1cccc2c1C(=O)N(C1CCC(=O)NC1=O)C2=O (stereo not shown) [drawing 76]
IL-2
  IL-2 (%) (Relative to DMSO): 208.6%
[1]
  viability: 96.3%
[2]
  inhibition at 200 µM: > 50%

## Nc1cccc2c1CN(C1CCC(=O)NC1=O)C2=O (stereo not shown) [drawing 123]
[3]
  viability: 99.9%
